Values quoted from earlier work as cited in US11529304B2, “Method for dyeing keratin material by means of a dyeing agent and an acidic posttreatment agent” (Henkel AG & Co. KGaA, priority 2018, dated 2022).

Conditions: for solubility in water: 25° C.

solubility in water (in words) (at 25° C.) | Molecule | solubility in water
– | O=C([O-])c1c(Cl)c(Cl)c(Cl)c(Cl)c1-c1c2c(Br)cc(=O)c(Br)c-2oc2c(Br)c(O)cc(Br)c12.O=C([O-])c1c(Cl)c(Cl)c(Cl)c(Cl)c1-c1c2c(Br)cc(=O)c(Br)c-2oc2c(Br)c(O)cc(Br)c12.[Na+].[Na+] [Acid Red 92, disodium salt of 3,4,5,6-tetrachloro-2-(1,4,5,8-tetrabromo-6-hydroxy-3-oxoxanthen-9-yl)benzoic acid] | greater than 10 g/L
– | O=S(=O)([O-])c1ccc(N=Nc2c(O)ccc3ccccc23)cc1.[Na+] [Acid Orange 7, sodium salt of 4-[(2-hydroxy-1-naphthyl)azo]benzene sulphonate] | more than 7 g/L
– | mixture of the sodium salts of mono- and sisulfonic acids of 2-(2-quinolyl)-1H-indene-1,3(2H)-dione [Acid Yellow 3] | 20 mg/mL
highly soluble | O=C([O-])C1=NN(c2ccc(S(=O)(=O)[O-])cc2)C(=O)C1N=Nc1ccc(S(=O)(=O)[O-])cc1.[Na+].[Na+].[Na+] (centres unmarked) [Acid Yellow 23] | –
– | Nc1cc(S(=O)(=O)[O-])cc2cc(S(=O)(=O)[O-])c(N=Nc3ccccc3)c(O)c12.[Na+].[Na+] [Acid Red 33, diantrium salt of 5-amino-4-hydroxy-3-(phenylazo)-naphthalene-2,7-disulphonate] | 2.5 mg/mL
